According to US20070185014A1, “Methods and compositions for modulating conjunctival goblet cells” (The Schepens Eye Research Institute, Inc., priority 2006, published 2007):

How the values were obtained:
[1] = tested on: rat conjunctival goblet cells; assay: Goblet cell proliferation, WST tetrazolium assay (Example 3A, Fluorescence Assay); assay type: cell-based; settings: for stimulation of goblet cell proliferation compared to control (no additions): 10^−7 M; for goblet cell proliferation, Ave. fold / goblet cell proliferation, fold of basal, rat101 / goblet cell proliferation, fold of basal, rat102 / goblet cell proliferation, fold of basal, rat103: 24 hrs; for goblet cell proliferation, Ave. fold: average of 3 rats; for goblet cell proliferation, fold of basal, rat101: cells from rat101; for goblet cell proliferation, fold of basal, rat102: cells from rat102; for goblet cell proliferation, fold of basal, rat103: cells from rat103
Excerpt: Conjunctival tissue from the fomical area and the nictitating membranes were removed from male Sprague Dawley rats. Tissue pieces were placed in explant culture in RPMI supplemented with fetal bovine serum (FBS). […] Non-goblet cells, predominantly fibroblasts, were removed by scraping. Goblet cells were allowed to grow and proliferate for several days. Cells were removed from the tissue culture vessel by trypsin treatment. The number of cells was counted using a coulter counter. For measurement of proliferation 200 cells were seeded onto 96 well plates. Cells were allowed to attach and proliferate until a sparsely confluent level was obtained, about two days.
Goblet cells from passage 1 or 2 cultured as above were used for measurement of proliferation. Cells were plated at 200 cells/well. Cells were serum-starved for 24 or 48 hrs. Test compounds in varying concentrations were added to each cell well for 24 hrs. The positive control for proliferation was the addition of 10% FBS, a known maximal stimulator of proliferation. Proliferation was terminated by the removal of medium.

[2] = tested on: rat conjunctival goblet cells; assay: Goblet cell proliferation, Ki-67/UEA-1/DAPi immunofluorescence assay (Example 3B); assay type: cell-based; settings: 24 hours; concentration most effective in the fluorescence assay (FBS 10%)
Excerpt: Conjunctival tissue from the fomical area and the nictitating membranes were removed from male Sprague Dawley rats. Tissue pieces were placed in explant culture in RPMI supplemented with fetal bovine serum (FBS). Over several days cells grew out of the explant and proliferated. Non-goblet cells, predominantly fibroblasts, were removed by scraping. Goblet cells were allowed to grow and proliferate for several days. Cells were removed from the tissue culture vessel by trypsin treatment. The number of cells was counted using a coulter counter. For measurement of proliferation 200 cells were seeded onto 96 well plates. […]
B. Immunofluorescence Assay This assay was used to confirm the results from the fluorescence assay. […]
Ki-67 was detected with a rhodamine secondary antibody using a filter that measures excitation wavelengths from 530-560 nm. UEA-1, which stains goblet cells, was directly conjugated to fluorescein isothyocyanate (FITC) and was detected using a filter that measures excitation wavelengths from 450-490 nm. DAPi, which stains the nuclei of all cells, was detected using a filter that measures excitation wavelengths from 400-418 nm. The percentage of proliferating goblet cells is determined by dividing the number of Ki-67 positive goblet cells by the total number of cells and multiplying by 100. […]

Question: How did the “effect on goblet cell proliferation” value ([1]; 10^−6 to 10^−3 M) turn out when `CC(C)Cn1c(=O)c2[nH]cnc2n(C)c1=O` [1-isobutyl-3methylxanthine, reference compound] was run?
Answer: did not increase proliferation at the concentrations tested

Question: With `C[N+](C)(C)CCOC(N)=O` [Carbachol, reference compound] as the molecule, how does the “effect on goblet cell proliferation” value ([1]; 10^−6 to 10^−3 M) read?
Answer: did not increase cell proliferation at any concentration

Question: `CC(C)NCC(O)c1ccc(O)c(O)c1` (stereo not shown) [Isoproterenol, reference compound] was tested. Which “effect on goblet cell proliferation” value ([1]; 10^−7 to 10^−3 M, likely due to interference with the assay) did it give?
Answer: did not increase proliferation

Question: For `CCCCCCCCCCCCCC(=O)O[C@@H]1[C@@H](C)[C@@]2(O)[C@@H](C=C(CO)C[C@]3(O)C(=O)C(C)=C[C@@H]23)[C@@H]2C(C)(C)[C@]12OC(C)=O` [PMA, Phorbol myristic acid, reference compound], which “effect on goblet cell proliferation” value ([1]; 10^−8M, solubilized in less than 1% DMSO, compared to no additions) is on record?
Answer: did not stimulate cell proliferation

Question: With `CCCC(=O)Nc1ncnc2c1ncn2[C@@H]1O[C@@H]2COP(=O)(O)O[C@H]2[C@H]1OC(=O)CCC` [butyryl cAMP, dibutyryl cAMP, reference compound] as the molecule, how does the “effect on goblet cell proliferation” value ([1]; 10^−6 to 10^−3 M) read?
Answer: did not increase proliferation at the concentrations tested

Question: What does the source list for `CCCC(=O)O[C@@H]1[C@@H](C)[C@@]2(O)[C@@H](C=C(CO)C[C@]3(O)C(=O)C(C)=C[C@@H]23)[C@@H]2C(C)(C)[C@]12OC(=O)CCC` [phorbol dibutyrate β isoform, phorbol dibutyrate, reference compound]?
Answer: effect on goblet cell proliferation ([1]; concentrations not greater than 10^−7 M, solubilized in DMSO): Neither isoform increased proliferation except at high concentrations; effect on goblet cell proliferation ([1]; high concentrations, greater than 10^−7 M, effect not mediated by PKC): both isoforms increased proliferation

Question: How did the “proliferation (Ki-67 positive goblet cells as percentage of total cells)” value [2] turn out when “EGF: epidermal growth factor, activates ErbB-1 receptors” was run?
Answer: 40%

Question: And the “stimulation of goblet cell proliferation compared to control (no additions)” value (“stimulation … compared to control (no additions)” below) [1]?
Answer: about two

Question: Which results are given for “Galectin-1: recombinant galectin, mono-CRD carbohydrate-binding protein, obtained from Cell Services, Massachusetts, 98% pure”?
Answer: dose dependence of effect on goblet cell proliferation ([1]; 0.1 μg/ml to 5 μg/ml): appeared to be dose dependent; effect on goblet cell proliferation ([1]; 0.1 μg/ml to 5 μg/ml): both galectins stimulated goblet cell proliferation; goblet cell proliferation, Ave. fold ([1]; 0.1 ug/ml): 1.0 fold; goblet cell proliferation, fold of basal, rat101 ([1]; 0.1 ug/ml): 1.1 fold; goblet cell proliferation, fold of basal, rat102 ([1]; 0.1 ug/ml): 1.0 fold; goblet cell proliferation, fold of basal, rat103 ([1]; 0.1 ug/ml): 1.0 fold; goblet cell proliferation, Ave. fold ([1]; 0.5 ug/ml): 1.0 fold; goblet cell proliferation, fold of basal, rat101 ([1]; 0.5 ug/ml): 1.1 fold; goblet cell proliferation, fold of basal, rat102 ([1]; 0.5 ug/ml): 1.0 fold; goblet cell proliferation, fold of basal, rat103 ([1]; 0.5 ug/ml): 1.0 fold; goblet cell proliferation, Ave. fold ([1]; 1.0 ug/ml): 1.0 fold; goblet cell proliferation, fold of basal, rat101 ([1]; 1.0 ug/ml): 1.1 fold; goblet cell proliferation, fold of basal, rat102 ([1]; 1.0 ug/ml): 1.0 fold; goblet cell proliferation, fold of basal, rat103 ([1]; 1.0 ug/ml): 1.0 fold; goblet cell proliferation, Ave. fold ([1]; 2.0 ug/ml): 1.2 fold; goblet cell proliferation, fold of basal, rat101 ([1]; 2.0 ug/ml): 1.5 fold; goblet cell proliferation, fold of basal, rat102 ([1]; 2.0 ug/ml): 1.2 fold; goblet cell proliferation, fold of basal, rat103 ([1]; 2.0 ug/ml): 1.1 fold; goblet cell proliferation, Ave. fold ([1]; 5.0 ug/ml): 1.3 fold; goblet cell proliferation, fold of basal, rat101 ([1]; 5.0 ug/ml): 1.4 fold; goblet cell proliferation, fold of basal, rat102 ([1]; 5.0 ug/ml): 1.4 fold; goblet cell proliferation, fold of basal, rat103 ([1]; 5.0 ug/ml): 1.2 fold

Question: With “Galectin-3: recombinant galectin with single CRD domain and extended N-terminal region, obtained from Cell Services, Massachusetts, 98% pure” as the molecule, how does the “dose dependence of effect on goblet cell proliferation” value ([1]; 0.1 μg/ml to 5 μg/ml) read?
Answer: appeared to be dose dependent

Question: And the “effect on goblet cell proliferation” value ([1]; 0.1 μg/ml to 5 μg/ml)?
Answer: both galectins stimulated goblet cell proliferation

Question: And the “goblet cell proliferation, Ave. fold” value ([1]; 0.1 ug/ml)?
Answer: 1.0 fold

Question: And the “goblet cell proliferation, fold of basal, rat101” value ([1]; 0.1 ug/ml)?
Answer: 1.0 fold

Question: What about the “goblet cell proliferation, fold of basal, rat102” value ([1]; 0.1 ug/ml) of the same molecule?
Answer: 0.9 fold

Question: What about the “goblet cell proliferation, fold of basal, rat103” value ([1]; 0.1 ug/ml) of the same molecule?
Answer: 1.0 fold

Question: And the “goblet cell proliferation, Ave. fold” value ([1]; 0.5 ug/ml)?
Answer: 1.1 fold

Question: And the “goblet cell proliferation, fold of basal, rat101” value ([1]; 0.5 ug/ml)?
Answer: 1.3 fold

Question: And the “goblet cell proliferation, fold of basal, rat102” value ([1]; 0.5 ug/ml)?
Answer: 1.0 fold

Question: And the “goblet cell proliferation, fold of basal, rat103” value ([1]; 0.5 ug/ml)?
Answer: 1.0 fold

Question: And the “goblet cell proliferation, Ave. fold” value ([1]; 1.0 ug/ml)?
Answer: 1.2 fold

Question: What about the “goblet cell proliferation, fold of basal, rat101” value ([1]; 1.0 ug/ml) of the same molecule?
Answer: 1.3 fold

Question: What about the “goblet cell proliferation, fold of basal, rat102” value ([1]; 1.0 ug/ml) of the same molecule?
Answer: 1.1 fold

Question: What about the “goblet cell proliferation, fold of basal, rat103” value ([1]; 1.0 ug/ml) of the same molecule?
Answer: 1.0 fold

Question: What about the “goblet cell proliferation, Ave. fold” value ([1]; 2.0 ug/ml) of the same molecule?
Answer: 1.3 fold

Question: And the “goblet cell proliferation, fold of basal, rat101” value ([1]; 2.0 ug/ml)?
Answer: 1.5 fold

Question: And the “goblet cell proliferation, fold of basal, rat102” value ([1]; 2.0 ug/ml)?
Answer: 1.3 fold

Question: And the “goblet cell proliferation, fold of basal, rat103” value ([1]; 2.0 ug/ml)?
Answer: 1.1 fold

Question: What about the “goblet cell proliferation, Ave. fold” value ([1]; 5.0 ug/ml) of the same molecule?
Answer: 1.4 fold

Question: What about the “goblet cell proliferation, fold of basal, rat101” value ([1]; 5.0 ug/ml) of the same molecule?
Answer: 1.8 fold

Question: And the “goblet cell proliferation, fold of basal, rat102” value ([1]; 5.0 ug/ml)?
Answer: 1.2 fold

Question: And the “goblet cell proliferation, fold of basal, rat103” value ([1]; 5.0 ug/ml)?
Answer: 1.1 fold

Question: For HGF: hepatocyte growth factor, which “effect on goblet cell proliferation” value ([1]; 15-40 ng/ml) is on record?
Answer: Neither hepatocyte growth factor (HGF, 15-40 ng/ml) nor keratinocyte growth factor (KGF, 10-30 ng/ml), at any of the concentrations used, stimulated cell proliferation

Question: Heregulin was tested. Which “stimulation … compared to control (no additions)” value [1] did it give?
Answer: more than 2 fold

Question: Which “increase in goblet cell proliferation compared to no additions” value ([1]; 5 to 25 ng/ml) does the source give for PDGF here?
Answer: 2 fold

Question: Which results are given for “bFGF: Basic fibroblast growth factor, also referred to as FGF-2”?
Answer: proliferation (Ki-67 positive goblet cells as percentage of total cells) [2]: 70%; effect on goblet cell proliferation ([1]; 10-20 ng/ml, similar to PDGF (2-fold)): had similar effects

Question: How did the “stimulation … compared to control (no additions)” value [1] turn out when “transforming growth factor (TGF)α: EGF family growth factor that activates ErbB-1 receptors” was run?
Answer: about two

B1: HB-EGF: Heparin binding-EGF, binds to ErbB-1 and ErbB-3 receptors (protein, UniProt Q99075 63-148, looked up)
Heparin-binding EGF-like …: DLQEADLDLLRVTLSSKPQALATPNKEEHGKRKKKGKGLGKKRDPCLRKYKDFCIHGECKYVKELRAPSCICHPGYHGERCHGLSL
Question: With B1 as the molecule, how does the “stimulation … compared to control (no additions)” value [1] read?
Answer: 2 fold

B2: KGF: keratinocyte growth factor (protein, UniProt P21781 32-194, looked up)
Fibroblast growth factor 7: CNDMTPEQMATNVNCSSPERHTRSYDYMEGGDIRVRRLFCRTQWYLRIDKRGKVKGTQEMKNNYNIMEIRTVAVGIVAIKGVESEFYLAMNKEGKLYAKKECNEDCNFKELILENHYNTYASAKWTHNGGEMFVALNQKGIPVRGKKTKKEQKTAHFLPMAIT
Question: For B2, which “effect on goblet cell proliferation” value ([1]; 10-30 ng/ml) is on record?
Answer: Neither hepatocyte growth factor (HGF, 15-40 ng/ml) nor keratinocyte growth factor (KGF, 10-30 ng/ml), at any of the concentrations used, stimulated cell proliferation
